From paper PMC12263422, “Cryo-EM structure of the human THIK-1 K2P K^+ channel reveals a lower Y gate regulated by lipids and anesthetics” (Nature Structural & Molecular Biology, 2025)
Where “and” joins values, the source holds several entries; their conditions need not be identical. Identical values can stand only once. Values belong to the compound of their own block, whether it stands above or below them.

Biological target: T1, Human K2P13.1 THIK-1 (WT) (Homo sapiens, UniProt Q9HB14)
T1 construct: expressed in transfected cells; host or cells: Xenopus oocytes (mRNA injection)
T1 sequence (Q9HB14 1-408): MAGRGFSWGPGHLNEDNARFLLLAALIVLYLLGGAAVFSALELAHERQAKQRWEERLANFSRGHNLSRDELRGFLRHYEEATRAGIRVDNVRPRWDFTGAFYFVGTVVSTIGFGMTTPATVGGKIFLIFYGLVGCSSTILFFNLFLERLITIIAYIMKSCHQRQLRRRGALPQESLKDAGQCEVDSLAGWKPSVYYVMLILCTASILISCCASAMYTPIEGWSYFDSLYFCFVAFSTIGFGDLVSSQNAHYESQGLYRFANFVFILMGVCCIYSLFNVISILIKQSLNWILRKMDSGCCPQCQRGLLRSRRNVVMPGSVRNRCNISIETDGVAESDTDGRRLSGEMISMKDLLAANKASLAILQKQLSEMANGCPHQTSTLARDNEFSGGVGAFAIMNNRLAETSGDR
Experiment: Macroscopic inside-out excised patch recordings from Xenopus oocytes expressing WT THIK-1; compounds applied to the intracellular side
Assay type: cell-based
Conditions: for inhibition at 152 µM: halothane 0.152 mM; for inhibition at 304 µM: halothane 0.304 mM; for inhibition at 1520 µM: halothane 1.52 mM; for inhibition at 3040 µM: halothane 3.04 mM; for inhibition at 15200 µM: halothane 15.2 mM
Source text: Human K2P13.1 THIK-1 (GenBank accession number: NM_022054) and human K2P12.1 THIK-2 (NM_022055.1) were used in this study. For functional expression studies, the respective K^+ channel subtype coding sequences were subcloned into the oocyte expression vector pSGEM or the dual-purpose expression vector pFAW[41] and verified by sequencing. All mutant channels were obtained by site-directed mutagenesis and verified by sequencing. To increase surface expression and macroscopic currents, measurements of THIK-2 channels used a mutated ER retention motif, (R11A R12A R14A R15A R16A; THIK-2*)[20]. Vector DNA was linearized with NheI or MluI, and mRNA was synthesized in vitro using the SP6 or T7 AmpliCap Max High Yield Message Maker Kit (Cellscript, USA) or HiScribe T7 ARCA mRNA Kit (New England Biolabs).
Two-electrode voltage–clamp (TEVC) studies were performed in Xenopus oocytes. All animal use conformed to the Guide for the Care and Use of Laboratory Animals (NIH Publication 85–23), and all experiments using Xenopus toads were approved by the local ethics panels. Oocytes were stored at 17 °C in ND96 recording solution composed of (in mM): 96 NaCl, 2 KCl, 1.8 CaCl2, 1 MgCl2, 5 HEPES (pH 7.5 adjusted with NaOH and HCl), supplemented with Na-pyruvate (275 mg L^–1), theophylline (90 mg L^–1) and gentamicin (50 mg L^–1). Oocytes were injected with 1 ng mRNA for WT or mutant channels, and were incubated for 24–48 h at 17 °C. Two-electrode voltage clamp recordings were then performed as previously described[42],[43]. For macroscopic patch–clamp measurements, oocytes were obtained as described above incubated at 17 °C in a solution containing (mM): 54 NaCl, 30 KCl, 2.4 NaHCO3, 0.82 MgSO4 ×7 H2O, 0.41 CaCl2, 0.33 Ca(NO3)2 ×4 H2O and 7.5 TRIS (pH 7.4 adjusted with NaOH and HCl) for 1–4 days before use. Excised patch recordings in inside-out configuration conditions were performed at room temperature. Patch pipettes were made from thick-walled borosilicate glass GB 200TF-8P (Science Products), had resistances of 0.2–0.5 MΩ (tip diameter, 10–25 µm) and filled with a pipette solution (in mM): 120 KCl, 10 HEPES and 3.6 CaCl2 (pH 7.4 adjusted with KOH and HCl). Intracellular bath solutions and compounds were applied to the cytoplasmic side of excised patches for the various K^+ channels through a gravity flow multi-barrel pipette system. The intracellular solution had the following composition (in mM): 120 KCl, 10 HEPES, 2 EGTA and 1 pyrophosphate (pH adjusted with KOH and HCl). Currents were recorded with an EPC10 amplifier (HEKA Electronics) and sampled at 10 kHz or higher, with filtering set to 3 kHz (–3 dB) or higher, as appropriate for sampling rate. For measurements of GPCR activation, whole-cell currents were recorded for THIK-1 in transiently transfected HEK-293 cells. Cells were stimulated by a ramp protocol between −100 and +60 mV (holding potential, −80 mV). The pipette solution was composed of (in mM): 140 KCl, 2 MgCl2, 1 CaCl2, 2.5 EGTA and 10 HEPES (pH 7.3 adjusted with KOH and HCl). The extracellular bath solution had the following composition (in mM): 135 NaCl, 5 KCl, 2 MgCl2, 2 CaCl2, 10 glucose and 10 HEPES pH (pH 7.3 adjusted with NaOH and HCl). Oxotremorine M (Oxo-M) was added to extracellular bath solution to obtain the final concentration. Single-channel currents were recorded with an Axopatch 200B amplifier through a Digidata 1440A digitizer (Molecular Devices). Data were filtered at 2 kHz and recorded at a 200-kHz sampling rate with the program Clampex (Molecular Devices). Pipette solution and bath solution for cell-attached recordings contained (in mM): 140 KCl, 2 MgCl2, 1 CaCl2 and 10 HEPES (pH 7.4 adjusted with KOH and HCl). For inside-out recordings, the bath solution contained (in mM): 140 KCl, 2 MgCl2, 1 CaCl2 and 10 HEPES (pH 7.2 adjusted with KOH and HCl). All experiments were conducted at room temperature. […]

[1] = THIK-1 WT (TPenA), presence of 0.5 mM TPenA
[2] = THIK-1 WT (oleoyl-CoA), 5.0 µM oleoyl-CoA

inhibition at 242 µM (THIK-1 WT (oleoyl-CoA), 0.242 mM isoflurane): 10.6%
inhibition at 485 µM (THIK-1 WT (oleoyl-CoA), 0.485 mM isoflurane): 21%
inhibition at 2420 µM (THIK-1 WT (oleoyl-CoA), 2.42 mM isoflurane): 33.6%
inhibition at 4850 µM (THIK-1 WT (oleoyl-CoA), 4.85 mM isoflurane): 60.9%
inhibition at 24200 µM (THIK-1 WT (oleoyl-CoA), 24.2 mM isoflurane): 79.7%
Inhibition (THIK-1 WT (oleoyl-CoA), isoflurane concentration printed as "v" (mM)): 4.36%
inhibition at 48 µM (isoflurane 0.048 mM, THIK-1 WT): 20.4%
inhibition at 242 µM (isoflurane 0.242 mM, THIK-1 WT): 33.6%
inhibition at 485 µM (isoflurane 0.485 mM, THIK-1 WT): 50.2%
inhibition at 2420 µM (isoflurane 2.42 mM, THIK-1 WT): 65.3%
inhibition at 4850 µM (isoflurane 4.85 mM, THIK-1 WT): 81.1%
inhibition at 24200 µM (isoflurane 24.2 mM, THIK-1 WT): 89.5%
Compound: FC(F)OC(Cl)C(F)(F)F (stereo not drawn) [Isoflurane, isoflurane]
Inhibition (%) (4.9 mM Isoflurane, WT, individual recordings): 88.353% and 81.703% and 79.557% and 81.992% and 78.205% and 79.070% and 68.116% and 80.054% and 86.809% and 87.556%

inhibition at 152 µM (THIK-1 WT): 11%
inhibition at 152 µM [1]: 6.45%
inhibition at 304 µM (THIK-1 WT): 18.8%
inhibition at 304 µM [1]: 13%
inhibition at 304 µM [2]: 4.78%
inhibition at 1520 µM (THIK-1 WT): 41.4%
inhibition at 1520 µM [1]: 23.2%
inhibition at 1520 µM [2]: 19.9%
inhibition at 3040 µM (THIK-1 WT): 57.6%
inhibition at 3040 µM [1]: 30%
inhibition at 3040 µM [2]: 38.9%
inhibition at 15200 µM (THIK-1 WT): 83.9%
inhibition at 15200 µM [1]: 57.9%
inhibition at 15200 µM [2]: 69.3%
Compound: FC(F)(F)C(Cl)Br (stereo not drawn) [halothane]
